Measured values reported in EP4759807A1, “PROTEOLYSIS TARGETING CHIMERA COMPOUND FOR DEGRADING IRAK4 AND USE THEREOF” (Shenzhen Zhongge Biological Technology Co., Ltd., priority 2023, dated 2025).
Read-outs that look alike come from different tables or passages of the source.

Key:
Assay in all cases: Inhibitory effect on human liver microsome CYP450 enzyme
Format in all cases: in vitro ADME
[1] = biological target: T1, CYP1A2 (Homo sapiens, UniProt P05177); details: human liver microsomes, substrate Phenacetin
T1 construct: 0.05 mg/mL liver microsomes (BioIVT, IHG) phosphate buffer solution; tissue BioIVT IHG; host or cells: human liver microsomes
T1 sequence (P05177 1-516): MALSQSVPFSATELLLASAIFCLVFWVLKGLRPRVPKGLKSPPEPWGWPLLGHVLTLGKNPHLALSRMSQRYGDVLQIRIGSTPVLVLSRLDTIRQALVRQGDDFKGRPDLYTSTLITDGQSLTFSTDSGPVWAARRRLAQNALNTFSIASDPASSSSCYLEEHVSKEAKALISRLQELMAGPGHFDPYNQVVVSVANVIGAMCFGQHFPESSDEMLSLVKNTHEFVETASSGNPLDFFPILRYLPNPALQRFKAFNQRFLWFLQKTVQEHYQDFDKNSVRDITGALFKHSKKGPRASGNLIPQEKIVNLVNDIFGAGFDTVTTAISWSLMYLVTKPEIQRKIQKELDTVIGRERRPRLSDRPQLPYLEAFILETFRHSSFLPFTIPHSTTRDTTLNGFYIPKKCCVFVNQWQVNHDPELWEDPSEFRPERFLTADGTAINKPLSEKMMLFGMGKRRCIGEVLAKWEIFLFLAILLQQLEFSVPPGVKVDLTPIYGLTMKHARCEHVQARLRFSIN
Protocol: (§1) In this experiment, the compound, liver microsomes and different CYP isoform enzyme substrates were incubated in a 37°C water bath, the amount of substrate metabolites generated was measured, and the inhibitory effect of the compound of the present disclosure on CYP enzyme was evaluated based on the IC50 value.
(§2) i. The compound was diluted with DMSO (Aladdin, catalog number: D103273-500ml) to concentrations of 0, 0.02, 0.06, 0.2, 0.6, 2 and 6 mM. The positive reference inhibitors for each CYP isoform and their concentrations are shown in Table 4 Table 4 Positive reference inhibitors for CYP isoform enzymes and their concentrations
(§3) ii. Phosphate buffer (sigma: V900050-500G) was used to formulate the substrate solution for each CYP isoform enzyme. Table 5 The substrate and the concentration thereof for CYP isoform enzyme
(§4) iii. Sample incubation. 1 µL of each concentration of the compound and positive reference inhibitor for CYP isoform enzyme were taken and placed into a 96-deep well plate (A-gen: P-1.0-RD-96-S), and 169 µL of 0.05 mg/mL liver microsomes (BioIVT, IHG) phosphate buffer solution (using 0.2 mg/mL liver microsomes for CYP2C19) was added. After uniform mixing, the plate was placed in a 37°C water bath (Shanghai Jinghong Experimental Equipment Co., Ltd., DK-500) with shaking for pre-incubation for 15 min. 10 µL of substrate (adding 1 µL of substrate for CYP3A4-Testosterone) and 20 µL of 10 mM NADPH phosphate buffer solution (MCE, HYF003/CS-4998) were added. After uniform mixing, the plate was incubated in a water bath with shaking for the following time: CYP1A2: 20 min, CYP2C9: 10 min, CYP2C19: 10 min, CYP2D6: 10 min, CYP3A4-Testosterone: 10 min, CYP3A4-Midazolam: 5 min. 400 µL of glacial acetonitrile/methanol (v/v, 1:1) containing an internal standard (500 nM tolbutamide, 5 nM terfenadine) was added to terminate the reaction. After centrifugation at 4000 rpm at 4°C for 40 min, the supernatant was taken and diluted with pure water according to the response of the metabolite of the substrate, and then UPLC-MS/MS (Sciex, Q-Trap 4500) was used for detection to obtain the peak area. The C18 chromatographic column was Kinetex 2.6u C18 100A (50 mm*3 mm).
(§5) The inhibitory effect of the compound on each P450 enzyme in human liver microsomes was calculated as the percentage of reduced metabolite formation compared with the non-inhibitory control (i.e. blank DMSO). The IC50 value of the compound for each P450 enzyme in human liver microsomes was calculated with the logarithm of the remaining activity and the inhibitor concentration using Graphpad Prism software. The calculation equation was as follows: Peak area ratio = compound peak area / internal standard peak area [formula] [formula]
(§6) In Graphpad Prism software, the IC50 value was calculated using the standard four-parameter curve fitting algorithm.

[2] = biological target: T2, CYP2C19 (Homo sapiens, UniProt P33261); details: human liver microsomes, substrate Mephenytoin
T2 construct: (using 0.2 mg/mL liver microsomes for CYP2C19); tissue BioIVT IHG; host or cells: human liver microsomes
T2 sequence (P33261 whole entry): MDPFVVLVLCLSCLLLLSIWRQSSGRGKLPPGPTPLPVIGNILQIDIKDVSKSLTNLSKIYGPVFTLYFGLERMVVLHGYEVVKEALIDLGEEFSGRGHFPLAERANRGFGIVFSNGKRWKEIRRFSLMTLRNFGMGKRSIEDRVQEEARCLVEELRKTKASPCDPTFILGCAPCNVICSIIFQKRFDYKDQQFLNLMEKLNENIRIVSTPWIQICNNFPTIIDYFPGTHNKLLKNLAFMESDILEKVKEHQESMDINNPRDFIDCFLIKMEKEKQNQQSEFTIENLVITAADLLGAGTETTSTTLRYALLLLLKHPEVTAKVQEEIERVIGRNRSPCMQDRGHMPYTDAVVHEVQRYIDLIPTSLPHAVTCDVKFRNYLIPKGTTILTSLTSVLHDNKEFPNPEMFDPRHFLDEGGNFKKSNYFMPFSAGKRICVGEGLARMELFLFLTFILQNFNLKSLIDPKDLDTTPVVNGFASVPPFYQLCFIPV
Protocol: as §1, §2, §3, §4, §5, §6

[3] = biological target: T3, CYP2C9 (Homo sapiens, UniProt P11712); details: human liver microsomes, substrate Diclofenac Sodium
T3 construct: 0.05 mg/mL liver microsomes (BioIVT, IHG) phosphate buffer solution; tissue BioIVT IHG; host or cells: human liver microsomes
T3 sequence (P11712 whole entry): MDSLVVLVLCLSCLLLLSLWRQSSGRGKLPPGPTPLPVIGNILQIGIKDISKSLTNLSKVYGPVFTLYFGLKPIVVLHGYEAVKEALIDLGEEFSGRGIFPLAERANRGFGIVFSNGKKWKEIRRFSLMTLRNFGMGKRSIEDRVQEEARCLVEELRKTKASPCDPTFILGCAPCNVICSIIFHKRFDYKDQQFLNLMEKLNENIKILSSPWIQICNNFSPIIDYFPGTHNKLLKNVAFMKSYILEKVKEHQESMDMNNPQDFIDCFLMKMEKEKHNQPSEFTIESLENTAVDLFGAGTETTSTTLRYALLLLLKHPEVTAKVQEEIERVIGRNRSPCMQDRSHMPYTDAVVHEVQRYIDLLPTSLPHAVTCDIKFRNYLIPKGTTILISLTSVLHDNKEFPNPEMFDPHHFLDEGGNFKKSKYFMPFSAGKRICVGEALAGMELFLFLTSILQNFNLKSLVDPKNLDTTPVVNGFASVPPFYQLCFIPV
Protocol: as §1, §2, §3, §4, §5, §6

[4] = biological target: T4, CYP2D6 (Homo sapiens, UniProt P10635); details: human liver microsomes, substrate Dextromethorphan
T4 construct: 0.05 mg/mL liver microsomes (BioIVT, IHG) phosphate buffer solution; tissue BioIVT IHG; host or cells: human liver microsomes
T4 sequence (P10635 whole entry): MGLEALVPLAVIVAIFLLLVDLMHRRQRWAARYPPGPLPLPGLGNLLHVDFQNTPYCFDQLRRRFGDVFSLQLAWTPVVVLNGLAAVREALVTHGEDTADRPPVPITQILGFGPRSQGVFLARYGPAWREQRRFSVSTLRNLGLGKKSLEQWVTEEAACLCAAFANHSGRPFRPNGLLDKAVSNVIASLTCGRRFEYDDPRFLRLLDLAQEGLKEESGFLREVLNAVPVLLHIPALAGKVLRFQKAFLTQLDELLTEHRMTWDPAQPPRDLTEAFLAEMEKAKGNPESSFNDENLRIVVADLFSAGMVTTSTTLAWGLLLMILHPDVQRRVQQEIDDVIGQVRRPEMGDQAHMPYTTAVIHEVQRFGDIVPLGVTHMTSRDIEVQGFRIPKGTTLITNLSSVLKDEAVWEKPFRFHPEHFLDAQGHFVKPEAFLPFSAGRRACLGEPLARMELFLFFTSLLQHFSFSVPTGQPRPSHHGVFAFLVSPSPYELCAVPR
Protocol: as §1, §2, §3, §4, §5, §6

[5] = biological target: T5, CYP3A4 (Homo sapiens, UniProt P08684); details: liver microsomes
T5 construct: 0.05 mg/mL liver microsomes (BioIVT, IHG) phosphate buffer solution; tissue BioIVT IHG; host or cells: human liver microsomes
T5 sequence (P08684 whole entry): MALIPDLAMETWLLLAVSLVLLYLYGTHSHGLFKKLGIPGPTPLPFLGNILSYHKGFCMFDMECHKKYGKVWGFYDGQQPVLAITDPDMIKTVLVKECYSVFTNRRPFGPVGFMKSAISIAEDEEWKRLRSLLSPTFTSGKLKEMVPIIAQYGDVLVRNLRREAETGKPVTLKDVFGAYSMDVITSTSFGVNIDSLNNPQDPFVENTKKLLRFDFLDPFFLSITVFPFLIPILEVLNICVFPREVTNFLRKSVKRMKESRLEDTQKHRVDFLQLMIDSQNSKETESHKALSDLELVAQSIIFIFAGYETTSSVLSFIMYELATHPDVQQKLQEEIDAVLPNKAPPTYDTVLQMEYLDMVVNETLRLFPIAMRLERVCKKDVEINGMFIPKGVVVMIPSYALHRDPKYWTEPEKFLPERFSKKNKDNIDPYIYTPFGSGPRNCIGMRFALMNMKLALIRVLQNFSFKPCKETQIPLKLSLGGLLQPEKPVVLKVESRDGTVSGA
Protocol: as §1, §2, §3, §4, §5, §6

With `Cn1c(=O)n(C2CCC(=O)NC2=O)c2cccc(N3CCC(N4CCN(C[C@H]5CC[C@H](n6cc(-n7cc(-c8cnn9ccc(N%10CCC[C@H](O)C%10)nc89)nn7)c(C(F)F)n6)CC5)CC4)CC3)c21` (stereo partly drawn) [Example 146] the IC50 [1] was > 30 µM, the IC50 [2] was 18.4 µM and the IC50 [3] was > 30 µM. The IC50 [4] was > 30 µM, the IC50 ([5]; substrate Midazolam, read-out: IC50 (µM) CYP3A4-M) was > 30 µM and the IC50 ([5]; substrate Testosterone, read-out: IC50 (µM) CYP3A4-T) was > 30 µM.
